Source: patent publication US20250250230A1, “HETEROCYCLIC COMPOUND” (TAKEDA PHARMACEUTICAL COMPANY LIMITED, priority 2022, published 2025)

The compounds below were run against T1, human orexin type 2 receptor (Homo sapiens, UniProt O43614) (assay: Measurement of orexin type 2 receptor agonist activity (calcium fluorescence, Fluo-4 AM, FDSS)). Details: test compound 3 μM; CHO cells expressing human OX2 receptor; DMSO = 0%, orexin A (human) = 100%.
T1 construct: expressed in transfected cells
T1 sequence (O43614 1-444): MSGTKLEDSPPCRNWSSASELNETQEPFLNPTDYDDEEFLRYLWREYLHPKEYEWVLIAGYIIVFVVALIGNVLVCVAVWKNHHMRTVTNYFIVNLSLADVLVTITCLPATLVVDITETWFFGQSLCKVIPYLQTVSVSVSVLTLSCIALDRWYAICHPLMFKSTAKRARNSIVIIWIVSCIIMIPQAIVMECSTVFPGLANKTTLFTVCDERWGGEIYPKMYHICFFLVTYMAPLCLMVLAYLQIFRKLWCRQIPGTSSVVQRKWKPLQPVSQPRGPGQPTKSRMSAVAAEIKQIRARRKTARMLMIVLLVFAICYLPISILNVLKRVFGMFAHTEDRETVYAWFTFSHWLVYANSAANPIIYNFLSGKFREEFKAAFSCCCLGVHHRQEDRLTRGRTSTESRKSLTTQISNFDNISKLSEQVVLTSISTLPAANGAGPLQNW
Type: cell-based
Method in brief: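 CHO-K1 cells stably expressing human OX2R were loaded with Fluo-4 AM (30 min 37 °C, 30 min RT) in HEPES-buffered HBSS with 0.1% BSA and probenecid. Calcium fluorescence was followed on FDSS for 2 min after compound addition; activity normalised to DMSO (0%) and 10 nM orexin A (100%).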

Row | Compound | OX2R agonist activity (3 μM, %)
1 | CN(C)S(=O)(=O)N[C@H]1CCN(C(=O)[C@@H]2C[C@H]2c2c(F)cccc2-c2c(F)cccc2F)C1 [Example 309, N,N-dimethyl-N′-{(3S)-1-[(1R,2R)-2-(2′,3,6′-trifluoro[1,1′-biphenyl]-2-yl)cyclopropane-1-carbonyl]pyrrolidin-3-yl}sulfuric diamide] | 97%
2 | Cc1ccc(C2CC2C(=O)N2CCCC(NS(C)(=O)=O)CC2)c(-c2c(F)cccc2F)c1 (racemic) [Example 167, a mixture of rac-N-{(4R)-1-[(1R,2R)-2-(2′,6′-difluoro-5-methyl[1,1′-biphenyl]-2-yl)cyclopropane-1-carbonyl]azepan-4-yl}methanesulfonamide and rac-N-{(4S)-1-[(1R,2R)-2-(2′,6′-difluoro-5-methyl[1,1′-biphenyl]-2-yl)cyclopropane-1-carbonyl]azepan-4-yl}methanesulfonamide] | 96%
3 | CS(=O)(=O)NC[C@@H]1CCN1C(=O)C1CC1c1c(-c2c(F)cccc2F)csc1F (stereo partly drawn) [Example 367, N-{[(2S)-1-{(1R,2R)-2-[4-(2,6-difluorophenyl)-2-fluorothiophen-3-yl]cyclopropane-1-carbonyl}azetidin-2-yl]methyl}methanesulfonamide, or N-{[(2S)-1-{(1S,2S)-2-[4-(2,6-difluorophenyl)-2-fluorothiophen-3-yl]cyclopropane-1-carbonyl}azetidin-2-yl]methyl}methanesulfonamide] | 93%
4 | CS(=O)(=O)NC1CCCN(C(=O)C2CC2c2ccc(C(F)F)cc2-c2c(F)cccc2F)CC1 (racemic) [Example 229, a mixture of rac-N-[(4R)-1-{(1R,2R)-2-[5-(difluoromethyl)-2′,6′-difluoro[1,1′-biphenyl]-2-yl]cyclopropane-1-carbonyl}azepan-4-yl]methanesulfonamide and rac-N-[(4S)-1-{(1R,2R)-2-[5-(difluoromethyl)-2′,6′-difluoro[1,1′-biphenyl]-2-yl]cyclopropane-1-carbonyl}azepan-4-yl]methanesulfonamide] | 64%
5 | CS(=O)(=O)NC1CCCN(C(=O)C2CC2c2ccccc2-c2ccccc2F)C1 (racemic) [Example 72, a mixture of rac-N-{(3R)-1-[(1R,2R)-2-(2′-fluoro[1,1′-biphenyl]-2-yl)cyclopropane-1-carbonyl]piperidin-3-yl}methanesulfonamide and rac-N-{(3S)-1-[(1R,2R)-2-(2′-fluoro[1,1′-biphenyl]-2-yl)cyclopropane-1-carbonyl]piperidin-3-yl}methanesulfonamide] | 81%
6 | CCS(=O)(=O)NC1CCN(C(=O)C2CC2c2ccccc2-c2c(F)cccc2F)C1 (racemic) [Example 27, a mixture of rac-N-{(3R)-1-[(1R,2R)-2-(2′,6′-difluoro[1,1′-biphenyl]-2-yl)cyclopropane-1-carbonyl]pyrrolidin-3-yl}ethanesulfonamide and rac-N-{(3S)-1-[(1R,2R)-2-(2′,6′-difluoro[1,1′-biphenyl]-2-yl)cyclopropane-1-carbonyl]pyrrolidin-3-yl}ethanesulfonamide] | 98%
7 | CS(=O)(=O)NC1CCCN(C(=O)C2CC2c2ccccc2-c2ccc(F)cc2F)C1 (racemic) [Example 68, a mixture of rac-N-{(3R)-1-[(1R,2R)-2-(2′,4′-difluoro[1,1′-biphenyl]-2-yl)cyclopropane-1-carbonyl]piperidin-3-yl}methanesulfonamide and rac-N-{(3S)-1-[(1R,2R)-2-(2′,4′-difluoro[1,1′-biphenyl]-2-yl)cyclopropane-1-carbonyl]piperidin-3-yl}methanesulfonamide] | 85%
8 | CC(NS(C)(=O)=O)C12CC(C1)N(C(=O)[C@@H]1C[C@@]1(F)c1ccccc1-c1c(F)cccc1F)C2 (stereo partly drawn) [Example 392, N-[(1R)-1-{2-[(1S,2S)-2-(2′,6′-difluoro[1,1′-biphenyl]-2-yl)-2-fluorocyclopropane-1-carbonyl]-2-azabicyclo[2.1.1]hexan-4-yl}ethyl]methanesulfonamide, or N-[(1S)-1-{2-[(1S,2S)-2-(2′,6′-difluoro[1,1′-biphenyl]-2-yl)-2-fluorocyclopropane-1-carbonyl]-2-azabicyclo[2.1.1]hexan-4-yl}ethyl]methanesulfonamide] | 68%
9 | CS(=O)(=O)N[C@@H](CO)C1CCN1C(=O)[C@@H]1C[C@@]1(F)c1ccccc1-c1c(F)cccc1F (stereo partly drawn) [Example 385, N-[(1R)-1-{(2R)-1-[(1S,2S)-2-(2′,6′-difluoro[1,1′-biphenyl]-2-yl)-2-fluorocyclopropane-1-carbonyl]azetidin-2-yl}-2-hydroxyethyl]methanesulfonamide, or N-[(1R)-1-{(2S)-1-[(1S,2S)-2-(2′,6′-difluoro[1,1′-biphenyl]-2-yl)-2-fluorocyclopropane-1-carbonyl]azetidin-2-yl}-2-hydroxyethyl]methanesulfonamide] | 95%
10 | CS(=O)(=O)NC1CCCN(C(=O)C2CC2c2ccccc2-c2ccccc2Cl)CC1 (racemic) [Example 43, a mixture of rac-N-{(4R)-1-[(1R,2R)-2-(2′-chloro[1,1′-biphenyl]-2-yl)cyclopropane-1-carbonyl]azepan-4-yl}methanesulfonamide and rac-N-{(4S)-1-[(1R,2R)-2-(2′-chloro[1,1′-biphenyl]-2-yl)cyclopropane-1-carbonyl]azepan-4-yl}methanesulfonamide] | 92%
11 | CS(=O)(=O)N[C@H]1CCCCN(C(=O)C2CC2(F)c2ccccc2-c2c(F)cccc2F)C1 (mixture of isomers) [Example 291, a mixture of N-{(3S)-1-[(1R,2R)-2-(2′,6′-difluoro[1,1′-biphenyl]-2-yl)-2-fluorocyclopropane-1-carbonyl]azepan-3-yl}methanesulfonamide and N-{(3S)-1-[(1S,2S)-2-(2′,6′-difluoro[1,1′-biphenyl]-2-yl)-2-fluorocyclopropane-1-carbonyl]azepan-3-yl}methanesulfonamide] | 93%
12 | Cc1cc(-c2c(F)cccc2F)c(C2CC2C(=O)N2CC[C@H](NS(C)(=O)=O)C2)cn1 (mixture of isomers) [Example 268, a mixture of rac-N-[(3R)-1-{(1R,2R)-2-[4-(2,6-difluorophenyl)-6-methylpyridin-3-yl]cyclopropane-1-carbonyl}pyrrolidin-3-yl]methanesulfonamide and rac-N-[(3S)-1-{(1R,2R)-2-[4-(2,6-difluorophenyl)-6-methylpyridin-3-yl]cyclopropane-1-carbonyl}pyrrolidin-3-yl]methanesulfonamide] | 80%
13 | CS(=O)(=O)N[C@H]1C[C@@H](F)CN(C(=O)[C@@H]2C[C@H]2c2ccccc2-c2c(F)cccc2F)C1 [Example 232, N-{(3S,5R)-1-[(1R,2R)-2-(2′,6′-difluoro[1,1′-biphenyl]-2-yl)cyclopropane-1-carbonyl]-5-fluoropiperidin-3-yl}methanesulfonamide] | 103%
14 | CS(=O)(=O)NC1CCN(C(=O)C2CC2c2ccc(C(F)F)cc2-c2c(F)cccc2F)C1 (racemic) [Example 228, a mixture of rac-N-[(3R)-1-{(1R,2R)-2-[5-(difluoromethyl)-2′,6′-difluoro[1,1′-biphenyl]-2-yl]cyclopropane-1-carbonyl}pyrrolidin-3-yl]methanesulfonamide and rac-N-[(3S)-1-{(1R,2R)-2-[5-(difluoromethyl)-2′,6′-difluoro[1,1′-biphenyl]-2-yl]cyclopropane-1-carbony}pyrrolidin-3-yl]methanesulfonamide] | 90%
15 | CS(=O)(=O)NC1CCCN(C(=O)C2CC2c2ccccc2-c2cccc(F)c2F)CC1 (racemic) [Example 54, a mixture of rac-N-{(4R)-1-[(1R,2R)-2-(2′,3′-difluoro[1,1′-biphenyl]-2-yl)cyclopropane-1-carbonyl]azepan-4-yl}methanesulfonamide and rac-N-{(4S)-1-[(1R,2R)-2-(2′,3′-difluoro[1,1′-biphenyl]-2-yl)cyclopropane-1-carbonyl]azepan-4-yl}methanesulfonamide] | 79%
16 | CS(=O)(=O)NC1CN(C(=O)C2CC2c2ccccc2-c2c(F)cccc2F)CC1(F)F (racemic) [Example 130, a mixture of rac-N-{(3R)-1-[(1R,2R)-2-(2′,6′-difluoro[1,1′-biphenyl]-2-yl)cyclopropane-1-carbonyl]-4,4-difluoropyrrolidin-3-yl}methanesulfonamide and rac-N-{(3S)-1-[(1R,2R)-2-(2′,6′-difluoro[1,1′-biphenyl]-2-yl)cyclopropane-1-carbonyl]-4,4-difluoropyrrolidin-3-yl}methanesulfonamide] | 87%
17 | O=C(C1CC1c1ccccc1-c1c(F)cccc1F)N1CCCCC(NS(=O)(=O)C2CC2)C1 (racemic) [Example 161, a mixture of rac-N-{(3R)-1-[(1R,2R)-2-(2′,6′-difluoro[1,1′-biphenyl]-2-yl)cyclopropane-1-carbonyl]azepan-3-yl}cyclopropanesulfonamide and rac-N-{(3S)-1-[(1R,2R)-2-(2′,6′-difluoro[1,1′-biphenyl]-2-yl)cyclopropane-1-carbonyl]azepan-3-yl}cyclopropanesulfonamide] | 99%
